Experimental data published in patent US9421209B2, “Kinase modulators” (Rhizen Pharmaceuticals SA, priority 2009, dated 2016).
Like-named read-outs stand apart in the source and are kept apart here.

Tests used:
[1] = biological target: P110 δ/Pi3K δ (Homo sapiens, UniProt O00329); test: Fluorescent (HTRF) determination of PI3K enzyme activity, δ isoform; type: biochemical; design: inhibition: dose or concentration left out as unconfirmed
Summary of the method: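 HTRF kit detecting PIP3 formed from PIP2 by human PI3Kδ, at room temperature. Reaction started with 400 μM ATP (addition concentration) for 30 min, then stopped, and detection mix incubated 6–18 h in the dark. Percent inhibition taken against blank and enzyme controls, and IC50 fitted.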

[2] = biological target: P110β (Homo sapiens, UniProt P42338); test: Fluorescent (HTRF) determination of PI3K enzyme activity, β isoform; type: biochemical
Sequence of P110β (P42338 whole entry, canonical isoform): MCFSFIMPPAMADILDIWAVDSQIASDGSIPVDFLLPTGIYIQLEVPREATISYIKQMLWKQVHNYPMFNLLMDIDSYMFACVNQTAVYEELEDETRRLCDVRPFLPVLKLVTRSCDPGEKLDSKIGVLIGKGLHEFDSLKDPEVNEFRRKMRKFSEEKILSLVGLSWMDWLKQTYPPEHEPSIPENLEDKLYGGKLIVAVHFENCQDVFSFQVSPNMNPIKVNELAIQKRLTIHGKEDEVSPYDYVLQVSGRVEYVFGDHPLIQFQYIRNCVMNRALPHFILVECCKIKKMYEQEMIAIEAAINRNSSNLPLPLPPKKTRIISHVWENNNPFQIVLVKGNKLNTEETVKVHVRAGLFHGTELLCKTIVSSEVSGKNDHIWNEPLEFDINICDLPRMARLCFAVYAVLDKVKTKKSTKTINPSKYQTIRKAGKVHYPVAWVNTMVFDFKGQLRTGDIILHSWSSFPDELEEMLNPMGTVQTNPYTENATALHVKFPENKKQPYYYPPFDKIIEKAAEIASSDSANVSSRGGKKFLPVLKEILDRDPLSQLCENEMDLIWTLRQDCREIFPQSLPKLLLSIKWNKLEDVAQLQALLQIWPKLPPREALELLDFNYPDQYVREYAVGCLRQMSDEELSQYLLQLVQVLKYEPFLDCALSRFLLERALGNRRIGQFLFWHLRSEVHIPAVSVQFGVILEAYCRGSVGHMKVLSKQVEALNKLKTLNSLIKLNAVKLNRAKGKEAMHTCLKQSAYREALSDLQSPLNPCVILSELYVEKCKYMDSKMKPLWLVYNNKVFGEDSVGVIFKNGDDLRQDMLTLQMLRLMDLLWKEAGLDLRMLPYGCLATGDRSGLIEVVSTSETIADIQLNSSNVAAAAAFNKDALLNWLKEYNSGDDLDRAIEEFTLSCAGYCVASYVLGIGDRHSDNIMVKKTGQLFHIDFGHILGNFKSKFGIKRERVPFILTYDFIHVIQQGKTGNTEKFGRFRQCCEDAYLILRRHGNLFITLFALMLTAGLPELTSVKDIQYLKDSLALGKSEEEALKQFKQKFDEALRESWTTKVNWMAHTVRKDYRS
Sequence of P110β (P27986 whole entry partner, canonical isoform): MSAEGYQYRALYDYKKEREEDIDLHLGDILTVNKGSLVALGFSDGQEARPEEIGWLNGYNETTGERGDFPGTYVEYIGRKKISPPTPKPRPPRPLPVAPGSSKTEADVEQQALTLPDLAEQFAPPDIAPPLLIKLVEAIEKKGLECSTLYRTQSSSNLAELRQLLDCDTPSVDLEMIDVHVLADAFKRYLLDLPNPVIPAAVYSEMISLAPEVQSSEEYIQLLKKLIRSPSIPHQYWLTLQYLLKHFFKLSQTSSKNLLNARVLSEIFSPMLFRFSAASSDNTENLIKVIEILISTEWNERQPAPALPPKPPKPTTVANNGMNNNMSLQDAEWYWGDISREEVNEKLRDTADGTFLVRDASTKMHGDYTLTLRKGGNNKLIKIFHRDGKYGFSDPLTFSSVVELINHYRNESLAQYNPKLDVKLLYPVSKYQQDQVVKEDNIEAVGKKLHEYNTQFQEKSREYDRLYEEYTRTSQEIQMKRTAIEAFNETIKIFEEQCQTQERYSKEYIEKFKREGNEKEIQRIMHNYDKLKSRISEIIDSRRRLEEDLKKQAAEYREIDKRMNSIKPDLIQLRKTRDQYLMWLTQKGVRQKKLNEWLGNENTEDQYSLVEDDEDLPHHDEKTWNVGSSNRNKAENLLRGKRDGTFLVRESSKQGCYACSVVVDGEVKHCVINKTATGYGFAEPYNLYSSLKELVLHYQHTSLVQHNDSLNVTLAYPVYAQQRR
Text: (§1) Assay 1: Fluorescent determination of PI3Kinase Kinase enzyme activity
(§2) Phosphoinositide 3 kinases (PI3K) belong to a class of lipid kinases that play a critical role in the regulation of several key cellular processes. The PI3K are capable of phosphorylating the 3-hydroxy position of phosphoinositols thereby generating second messengers involved in downstream signalling events. The homogenous time resolved fluorescence (HTRF) assay allows detection of 3,4,5-triphosphate (PIP3) formed as a result of phosphorylation of phosphotidylinositol 4,5-biphosphate (PIP2) by PI3K isoforms such as α, β, γ or δ.
(§3) PI3K isoform activity for α, β, γ or δ was determined using a PI3K human HTRF™ Assay Kit (Millipore, Billerica, Mass.) with modifications. All incubations were carried out at room temperature. Briefly, 0.5 μl of 40× inhibitor (in 100% DMSO) or 100% DMSO were added to each well of a 384-well black plate (Greiner Bio-One, Monroe, N.C.) containing 14.5 μl 1× reaction buffer/PIP2 (10 mM MgCl2, 5 mM DTT, 1.38 μM PIP2) mix with or without enzyme and incubated for 10 min. After the initial incubation, 5 μl/well of 400 μM ATP was added and incubated for an additional 30 minutes. Reaction was terminated by adding 5 μl/well stop solution (Millipore, Billerica, Mass.). Five microliters of detection mix (Millipore, Billerica, Mass.) were then added to each well and was incubated for 6-18 h in the dark. HRTF ratio was measured on a microplate reader (BMG Labtech., Germany) at an excitation wavelength of 337 nm and emission wavelengths of 665 and 620 nm with an integration time of […]. Data were analyzed using Graphpad Prism (Graphpad software; San Diego Calif.) for IC50 determination. Percent inhibition was calculated based on the values for the blank and enzyme controls. The results are provided below in Table 2 & 3.

[3] = biological target: P110γ (Homo sapiens, UniProt P48736); test: Fluorescent (HTRF) determination of PI3K enzyme activity, γ isoform; type: biochemical
Sequence of P110γ (P48736 whole entry, canonical isoform): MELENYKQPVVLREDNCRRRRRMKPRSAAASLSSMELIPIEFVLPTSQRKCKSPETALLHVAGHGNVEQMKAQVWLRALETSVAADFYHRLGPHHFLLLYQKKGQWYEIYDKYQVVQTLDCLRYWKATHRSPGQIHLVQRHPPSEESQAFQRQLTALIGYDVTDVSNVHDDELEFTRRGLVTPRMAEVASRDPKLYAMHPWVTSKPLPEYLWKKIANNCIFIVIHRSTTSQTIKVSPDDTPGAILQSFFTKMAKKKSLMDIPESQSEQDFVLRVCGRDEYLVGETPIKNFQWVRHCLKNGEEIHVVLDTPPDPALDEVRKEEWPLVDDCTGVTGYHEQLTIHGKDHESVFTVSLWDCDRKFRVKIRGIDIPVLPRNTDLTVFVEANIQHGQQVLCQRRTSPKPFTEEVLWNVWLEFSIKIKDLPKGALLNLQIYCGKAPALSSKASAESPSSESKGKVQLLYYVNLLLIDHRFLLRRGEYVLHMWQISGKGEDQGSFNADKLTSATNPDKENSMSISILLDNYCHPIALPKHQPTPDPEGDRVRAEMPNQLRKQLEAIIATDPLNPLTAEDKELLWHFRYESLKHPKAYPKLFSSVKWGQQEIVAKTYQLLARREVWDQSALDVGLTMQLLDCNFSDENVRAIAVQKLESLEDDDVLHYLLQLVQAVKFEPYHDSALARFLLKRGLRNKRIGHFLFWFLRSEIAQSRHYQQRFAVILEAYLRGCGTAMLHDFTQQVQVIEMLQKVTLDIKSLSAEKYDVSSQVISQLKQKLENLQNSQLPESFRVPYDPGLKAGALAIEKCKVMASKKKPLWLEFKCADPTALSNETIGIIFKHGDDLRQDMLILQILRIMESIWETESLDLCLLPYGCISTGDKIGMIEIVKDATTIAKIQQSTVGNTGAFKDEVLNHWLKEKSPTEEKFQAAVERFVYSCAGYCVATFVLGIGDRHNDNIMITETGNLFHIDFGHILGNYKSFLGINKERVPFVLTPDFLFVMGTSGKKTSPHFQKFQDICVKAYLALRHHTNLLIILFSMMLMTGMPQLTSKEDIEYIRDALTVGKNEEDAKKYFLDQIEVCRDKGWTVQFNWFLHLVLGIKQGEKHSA
Text: as §1, §2, §3

[4] = biological target: P110α (Homo sapiens, UniProt P42336); test: Fluorescent (HTRF) determination of PI3K enzyme activity, α isoform; type: biochemical
Sequence of P110α (P42336 whole entry, canonical isoform): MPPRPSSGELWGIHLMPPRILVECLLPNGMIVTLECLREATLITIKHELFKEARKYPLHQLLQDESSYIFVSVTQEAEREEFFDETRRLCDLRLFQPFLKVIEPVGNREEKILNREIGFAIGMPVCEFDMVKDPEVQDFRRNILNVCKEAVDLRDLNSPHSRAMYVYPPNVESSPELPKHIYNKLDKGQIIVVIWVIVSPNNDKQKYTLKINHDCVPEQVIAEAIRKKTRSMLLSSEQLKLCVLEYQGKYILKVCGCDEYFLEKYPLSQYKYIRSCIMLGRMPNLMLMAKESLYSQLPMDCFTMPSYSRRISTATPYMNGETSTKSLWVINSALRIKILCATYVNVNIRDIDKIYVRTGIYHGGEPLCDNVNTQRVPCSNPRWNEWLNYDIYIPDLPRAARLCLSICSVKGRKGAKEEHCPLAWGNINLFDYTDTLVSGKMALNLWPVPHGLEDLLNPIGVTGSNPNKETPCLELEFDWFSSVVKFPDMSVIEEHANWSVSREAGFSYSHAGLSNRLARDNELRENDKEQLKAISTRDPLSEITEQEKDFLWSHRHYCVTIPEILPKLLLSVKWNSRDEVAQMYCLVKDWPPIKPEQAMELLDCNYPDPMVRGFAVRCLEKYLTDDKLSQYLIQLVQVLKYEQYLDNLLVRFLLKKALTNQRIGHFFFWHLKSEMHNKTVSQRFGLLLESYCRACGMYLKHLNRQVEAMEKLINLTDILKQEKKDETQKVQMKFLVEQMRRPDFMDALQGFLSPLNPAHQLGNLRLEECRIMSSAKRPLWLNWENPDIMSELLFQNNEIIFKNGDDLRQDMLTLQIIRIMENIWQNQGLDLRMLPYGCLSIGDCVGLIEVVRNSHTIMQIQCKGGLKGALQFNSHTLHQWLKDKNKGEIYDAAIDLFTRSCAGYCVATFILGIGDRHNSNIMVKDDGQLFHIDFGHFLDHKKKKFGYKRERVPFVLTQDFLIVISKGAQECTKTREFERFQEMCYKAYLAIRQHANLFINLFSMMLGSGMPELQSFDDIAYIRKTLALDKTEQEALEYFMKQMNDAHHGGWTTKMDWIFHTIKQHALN
Sequence of P110α (P27986 whole entry partner, canonical isoform): as the sequence (P27986 whole entry partner, canonical isoform) above
Text: as §1, §2, §3

[5] = read-out: P110 δ/ Pi3K δ IC 50 nM

Sequence of P110 δ/Pi3K δ (O00329 whole entry, canonical isoform): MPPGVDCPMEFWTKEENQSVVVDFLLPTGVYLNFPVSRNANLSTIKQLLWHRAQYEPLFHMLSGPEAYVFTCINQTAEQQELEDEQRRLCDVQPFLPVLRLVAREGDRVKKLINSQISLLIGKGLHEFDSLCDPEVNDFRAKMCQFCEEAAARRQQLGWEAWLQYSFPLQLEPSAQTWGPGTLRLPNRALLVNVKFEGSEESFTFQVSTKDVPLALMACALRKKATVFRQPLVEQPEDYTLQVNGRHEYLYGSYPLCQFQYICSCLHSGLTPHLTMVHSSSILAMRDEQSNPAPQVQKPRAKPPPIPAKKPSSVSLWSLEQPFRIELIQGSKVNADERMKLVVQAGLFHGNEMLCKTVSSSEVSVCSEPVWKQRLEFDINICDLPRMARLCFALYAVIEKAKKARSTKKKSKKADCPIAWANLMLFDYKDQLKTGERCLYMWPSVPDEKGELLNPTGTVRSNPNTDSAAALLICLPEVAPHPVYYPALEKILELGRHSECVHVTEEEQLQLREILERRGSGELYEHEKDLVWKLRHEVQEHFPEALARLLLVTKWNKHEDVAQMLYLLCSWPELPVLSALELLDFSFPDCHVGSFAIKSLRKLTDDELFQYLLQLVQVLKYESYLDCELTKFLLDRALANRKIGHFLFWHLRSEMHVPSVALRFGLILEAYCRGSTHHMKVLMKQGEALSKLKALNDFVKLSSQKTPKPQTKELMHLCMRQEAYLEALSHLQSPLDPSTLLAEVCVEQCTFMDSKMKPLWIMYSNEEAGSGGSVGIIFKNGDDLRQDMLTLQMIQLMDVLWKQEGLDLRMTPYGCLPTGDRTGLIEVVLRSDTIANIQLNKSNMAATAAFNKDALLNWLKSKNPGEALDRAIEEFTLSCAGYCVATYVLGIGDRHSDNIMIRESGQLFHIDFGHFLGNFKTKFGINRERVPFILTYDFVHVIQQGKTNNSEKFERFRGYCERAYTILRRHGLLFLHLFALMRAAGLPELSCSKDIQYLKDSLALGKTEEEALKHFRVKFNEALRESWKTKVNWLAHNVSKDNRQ
Sequence of P110 δ/Pi3K δ (P27986 whole entry partner, canonical isoform): as the sequence (P27986 whole entry partner, canonical isoform) above

| SMILES | inhibition at 1 µM [1] [%] | IC50 ([1]; read-out: P110 δ/Pi3K δ IC 50 nM) [nM] | inhibition at 1 µM [2] [%] | inhibition at 1 µM [3] [%] | melting point [°C] | inhibition [1] [%] | inhibition at 1 µM [4] [%] | IC50 [1, 5] [nM] |
| --- | --- | --- | --- | --- | --- | --- | --- | --- |
| C[C@H](Nc1ncnc2[nH]cnc12)c1oc2ccc(F)cc2c(=O)c1-c1cccc(F)c1 [Example 74, (S)-2-(1-(9H-purin-6-ylamino)ethyl)-6-fluoro-3-(3-fluorophenyl)-4H-chromen-4-one] | 50 to 100 | < 250 | 25 to 50 | 25 to 50 | 203 to 206 |  |  |  |
| CC(c1oc2ccccc2c(=O)c1-c1cccc(F)c1)n1nc(-c2ccc(O)c(F)c2)c2c(N)ncnc21 (stereo not drawn) [Example 85, 2-(1-(4-amino-3-(3-fluoro-4-hydroxyphenyl)-1H-pyrazolo[3,4-d]pyrimidin-1-yl)ethyl)-3-(3-fluorophenyl)-4H-chromen-4-one] |  |  | 25 to 50 |  | 244 to 247 | 50 to 100 | 25 to 50 |  |
| Cc1n[nH]c2cc(-c3nn(C(C)c4oc5ccc(F)cc5c(=O)c4-c4ccccc4)c4ncnc(N)c34)ccc12 (stereo not drawn) [Example 105, 2-(1-(4-amino-3-(3-methyl-1H-indazol-6-yl)-1H-pyrazolo[3,4-d]pyrimidin-1-yl)ethyl)-6-fluoro-3-phenyl-4H-chromen-4-one] |  |  | 50 to 100 | 50 to 100 | 253 to 255 | 50 to 100 |  | < 250 |
| Cc1n[nH]c2ccc(-c3nn(C(C)c4oc5ccccc5c(=O)c4-c4cccc(F)c4)c4ncnc(N)c34)cc12 (stereo not drawn) [Example 106, 2-(1-(4-amino-3-(3-methyl-1H-indazol-5-yl)-1H-pyrazolo[3,4-d]pyrimidin-1-yl)ethyl)-3-(3-fluorophenyl)-4H-chromen-4-one] |  |  | < 25 | 25 to 50 | 254 to 256 | < 50 |  |  |
| Cc1n[nH]c2cc(-c3nn(C(C)c4oc5ccc(F)cc5c(=O)c4-c4cccc(F)c4)c4ncnc(N)c34)ccc12 (stereo not drawn) [Example 108, 2-(1-(4-amino-3-(3-methyl-1H-indazol-6-yl)-1H-pyrazolo[3,4-d]pyrimidin-1-yl)ethyl)-6-fluoro-3-(3-fluorophenyl)-4H-chromen-4-one] |  |  | 25 to 50 | 50 to 100 | 234 to 236 | 50 to 100 |  | < 250 |
| CCc1n[nH]c2cc(-c3nn(C(C)c4oc5ccccc5c(=O)c4-c4cccc(F)c4)c4ncnc(N)c34)ccc12 (stereo not drawn) [Example 110, 2-(1-(4-amino-3-(3-ethyl-1H-indazol-6-yl)-1H-pyrazolo[3,4-d]pyrimidin-1-yl)ethyl)-3-(3-fluorophenyl)-4H-chromen-4-one] |  |  | < 25 | 50 to 100 | 270 to 273 | 50 to 100 |  |  |
| COc1ncc(-c2nn(C(C)c3oc4ccccc4c(=O)c3-c3cccc(F)c3)c3ncnc(N)c23)cn1 (stereo not drawn) [Example 112, 2-(1-(4-amino-3-(2-methoxypyrimidin-5-yl)-1H-pyrazolo[3,4-d]pyrimidin-1-yl)ethyl)-3-(3-fluorophenyl)-4H-chromen-4-one] |  |  | < 25 |  | 224 to 227 | < 50 | < 25 |  |
| Cc1nc2cc(-c3nn(C(C)c4oc5ccccc5c(=O)c4-c4cccc(F)c4)c4ncnc(N)c34)ccc2[nH]1 (stereo not drawn) [Example 115, 2-(1-(4-amino-3-(2-methyl-1H-benzo[d]imidazol-5-yl)-1H-pyrazolo[3,4-d]pyrimidin-1-yl)ethyl)-3-(3-fluorophenyl)-4H-chromen-4-one] |  |  | < 25 |  | 154 to 156 | 50 to 100 | < 25 | < 250 |
| CCC(c1oc2ccccc2c(=O)c1-c1cccc(F)c1)n1nc(-c2ccc3c(C)n[nH]c3c2)c2c(N)ncnc21 (stereo not drawn) [Example 116, 2-(1-(4-amino-3-(3-methyl-1H-indazol-6-yl)-1H-pyrazolo[3,4-d]pyrimidin-1-yl)propyl)-3-(3-fluorophenyl)-4H-chromen-4-one] |  |  | < 25 |  | 268 to 270 | 50 to 100 | < 25 |  |
| Nc1ncnc2c1ncn2Cc1oc2ccc(F)cc2c(=O)c1-c1ccccc1 [Example 118, 2-((6-amino-9H-purin-9-yl)methyl)-6-fluoro-3-phenyl-4H-chromen-4-one] |  |  | 25 to 50 |  | 207 to 209 | < 50 | < 25 |  |
| Nc1ncnc2c1ncn2Cc1oc2ccc(F)cc2c(=O)c1-c1cccc(F)c1 [Example 119, 2-((6-amino-9H-purin-9-yl)methyl)-6-fluoro-3-(3-fluorophenyl)-4H-chromen-4-one] |  |  | < 25 |  | 180 to 183 | < 50 | < 25 |  |
| C[C@@H](Nc1ncnc2[nH]cnc12)c1oc2ccc(F)cc2c(=O)c1-c1cccc(F)c1 [Example 124, (R)-2-(1-(9H-purin-6-ylamino)ethyl)-6-fluoro-3-(3-fluorophenyl)-4H-chromen-4-one] |  |  | < 25 |  | 194 to 197 | < 50 | < 25 |  |
| Nc1ncnc2c1c(-c1cn[nH]c1)nn2Cc1oc2ccc(F)cc2c(=O)c1-c1ccccc1 [Example 125, 2-((4-amino-3-(1H-pyrazol-4-yl)-1H-pyrazolo[3,4-d]pyrimidin-1-yl)methyl)-6-fluoro-3-phenyl-4H-chromen-4-one] |  |  | < 25 |  | 211 to 214 | < 50 | < 25 |  |
| COc1cc(OC)cc(-c2nn(C(C)c3oc4ccccc4c(=O)c3-c3cccc(F)c3)c3ncnc(N)c23)c1 (stereo not drawn) [Example 130, 2-(1-(4-amino-3-(3,5-dimethoxyphenyl)-1H-pyrazolo[3,4-d]pyrimidin-1-yl)ethyl)-3-(3-fluorophenyl)-4H-chromen-4-one] |  |  | < 25 |  | 224 to 227 | < 50 | < 25 |  |
| COc1c(C)cc(-c2nn(C(C)c3oc4ccccc4c(=O)c3-c3cccc(F)c3)c3ncnc(N)c23)cc1C (stereo not drawn) [Example 131, 2-(1-(4-amino-3-(4-methoxy-3,5-dimethylphenyl)-1H-pyrazolo[3,4-d]pyrimidin-1-yl)ethyl)-3-(3-fluorophenyl)-4H-chromen-4-one] |  |  | < 25 |  | 234 to 236 | < 50 | 25 to 50 |  |
| CC(c1oc2ccccc2c(=O)c1-c1cccc(F)c1)n1nc(-c2ccc3c(c2)OCCO3)c2c(N)ncnc21 (stereo not drawn) [Example 133, 2-(1-(4-amino-3-(2,3-dihydrobenzo[b][1,4]dioxin-6-yl)-1H-pyrazolo[3,4-d]pyrimidin-1-yl)ethyl)-3-(3-fluorophenyl)-4H-chromen-4-one] |  |  | 50 to 100 |  | 225 to 226 | < 50 | < 25 |  |
| CC(c1oc2ccccc2c(=O)c1-c1cccc(F)c1)n1nc(-c2ccc(Oc3ccccc3)cc2)c2c(N)ncnc21 (stereo not drawn) [Example 139, 2-(1-(4-amino-3-(4-phenoxyphenyl)-1H-pyrazolo[3,4-d]pyrimidin-1-yl)ethyl)-3-(3-fluorophenyl)-4H-chromen-4-one] |  |  | 25 to 50 | 25 to 50 | 218 to 220 | < 50 |  |  |
| CC(c1oc2ccccc2c(=O)c1-c1cccc(F)c1)n1nc(-c2ccc(OCc3ccccc3)c(Cl)c2)c2c(N)ncnc21 (stereo not drawn) [Example 140, 2-(1-(4-amino-3-(4-(benzyloxy)-3-chlorophenyl)-1H-pyrazolo[3,4-d]pyrimidin-1-yl)ethyl)-3-(3-fluorophenyl)-4H-chromen-4-one] |  |  | 25 to 50 | 25 to 50 | 214 to 216 | < 50 |  |  |
| CC(C)Oc1ccc(-c2nn(C(C)c3oc4ccccc4c(=O)c3-c3cccc(F)c3)c3ncnc(N)c23)cc1Cl (stereo not drawn) [Example 141, 2-(1-(4-amino-3-(3-chloro-4-isopropoxyphenyl)-1H-pyrazolo[3,4-d]pyrimidin-1-yl)ethyl)-3-(3-fluorophenyl)-4H-chromen-4-one] |  |  | 25 to 50 | 50 to 100 | 198 to 200 | 50 to 100 |  |  |
| CC(c1oc2ccccc2c(=O)c1-c1cccc(F)c1)n1nc(-c2cccc(N(C)C)c2)c2c(N)ncnc21 (stereo not drawn) [Example 142, 2-(1-(4-amino-3-(3-(dimethylamino)phenyl)-1H-pyrazolo[3,4-d]pyrimidin-1-yl)ethyl)-3-(3-fluorophenyl)-4H-chromen-4-one] |  |  | 25 to 50 | < 25 | 218 to 220 | < 50 |  |  |
